Tests used:
[1] = Drug-related adverse events graded by NCI CTCAE version 4.0; format: in vivo, human; conditions: overall, 80 patients enrolled; given with veliparib
[2] = cyclophosphamide iv at 450 mg/m^2 and 750 mg/m^2
metastatic breast cancer = conditions: with veliparib 200 mg BID in 21-day cycles; cited from earlier work
[3] = system: MX-1 BRCA1 deficient breast cancer model; conditions: in vivo; cited from earlier work

Structure (SMILES): O=P1(N(CCCl)CCCl)NCCCO1 (stereo not shown) [cyclophosphamide]
- Patients with a dose reduction of cyclophosphamide [1]: 3 patients
- Effect of oral veliparib on cyclophosphamide PK [2]: not influenced by veliparib
- Recommended phase II dose of cyclophosphamide (metastatic breast cancer): 125 mg po daily
- Tumor effect of single agent [3]: only delayed tumor growth slightly

— PMC8934569 (Cancer chemotherapy and pharmacology, 2021)
